SMILES strings stand for the structures.

Assay type in all cases: functional
Assay [1] deals with Trichoplusia ni. Briefly: Antifeedant activity against third-instar larval stage of Trichoplusia ni (cabbage looper) infested compound-treated leaf assessed as time required to stop feeding at 167 mg a.i/L after 48 hr by leaf disk assay (reference value: > 2880 min).
Assay [2] deals with Helicoverpa zea. Briefly: Antifeedant activity against third-instar larval stage of Helicoverpa zea (corn earworm) infested compound-treated leaf assessed as reduction in feeding damage at 167 mg a.i/L after 48 hr by leaf disk assay relative to untreated control. The arrangement: scale not given: the % may be the effect or the level left.
The test system of assay [3] is Plutella xylostella. Put plainly: Antifeedant activity against third-instar larval stage of Plutella xylostella (diamondback moth) infested compound-treated leaf assessed as reduction in feeding damage at 167 mg a.i/L after 48 hr by leaf disk assay relative to untreated control. Also noted: scale not given: the % may be the effect or the level left.
Assay [4] deals with Plutella xylostella. Put plainly: Antifeedant activity against third-instar larval stage of Plutella xylostella (diamondback moth) infested compound-treated leaf assessed as time required to stop feeding at 167 mg a.i/L after 48 hr by leaf disk assay (reference value: > 2880 min).
The test system of assay [5] is Spodoptera exigua. Briefly: Antifeedant activity against third-instar larval stage of Spodoptera exigua infested compound-treated leaf assessed as reduction in feeding damage at 167 mg a.i/L after 48 hr by leaf disk assay relative to untreated control. Also noted: scale not given: the % may be the effect or the level left.
Assay [6] relates to Trichoplusia ni. Put plainly: Antifeedant activity against third-instar larval stage of Trichoplusia ni (cabbage looper) infested compound-treated leaf assessed as reduction in feeding damage at 167 mg a.i/L after 48 hr by leaf disk assay relative to untreated control. The arrangement: scale not given: the % may be the effect or the level left.
In assay [7] the test system is Helicoverpa zea. Briefly: Antifeedant activity against third-instar larval stage of Helicoverpa zea (corn earworm) infested compound-treated leaf assessed as time required to stop feeding at 167 mg a.i/L after 48 hr by leaf disk assay (reference value: > 2880 min).
For assay [8], the system named is Spodoptera exigua. Put plainly: Antifeedant activity against third-instar larval stage of Spodoptera exigua infested compound-treated leaf assessed as time required to stop feeding at 167 mg a.i/L after 48 hr by leaf disk assay (reference value: > 2880 min).
The test system of assay [9] is Helicoverpa zea. Briefly: Antifeedant activity against third-instar larval stage of Helicoverpa zea (corn earworm) infested compound-treated leaf assessed as time required to stop feeding at 40 mg a.i/L after 48 hr by leaf disk assay (reference value: > 2880 min).
In assay [10] the test system is Helicoverpa zea. Briefly: Antifeedant activity against third-instar larval stage of Helicoverpa zea (corn earworm) infested compound-treated leaf assessed as reduction in feeding damage at 40 mg a.i/L after 48 hr by leaf disk assay relative to untreated control. Also noted: scale not given: the % may be the effect or the level left.
For assay [11], the system named is Plutella xylostella. Put plainly: Antifeedant activity against third-instar larval stage of Plutella xylostella (diamondback moth) infested compound-treated leaf assessed as reduction in feeding damage at 40 mg a.i/L after 48 hr by leaf disk assay relative to untreated control. Also noted: scale not given: the % may be the effect or the level left.
For assay [12], the system named is Spodoptera exigua. Put plainly: Antifeedant activity against third-instar larval stage of Spodoptera exigua infested compound-treated leaf assessed as time required to stop feeding at 40 mg a.i/L after 48 hr by leaf disk assay (reference value: > 2880 min).
Assay [13] relates to Plutella xylostella. Briefly: Antifeedant activity against third-instar larval stage of Plutella xylostella (diamondback moth) infested compound-treated leaf assessed as time required to stop feeding at 40 mg a.i/L after 48 hr by leaf disk assay (reference value: > 2880 min).
In assay [14] the test system is Trichoplusia ni. Briefly: Antifeedant activity against third-instar larval stage of Trichoplusia ni (cabbage looper) infested compound-treated leaf assessed as reduction in feeding damage at 40 mg a.i/L after 48 hr by leaf disk assay relative to untreated control. The arrangement: scale not given: the % may be the effect or the level left.
Assay [15] concerns Trichoplusia ni. Put plainly: Antifeedant activity against third-instar larval stage of Trichoplusia ni (cabbage looper) infested compound-treated leaf assessed as time required to stop feeding at 40 mg a.i/L after 48 hr by leaf disk assay (reference value: > 2880 min).
Assay [16] concerns Spodoptera exigua. Briefly: Antifeedant activity against third-instar larval stage of Spodoptera exigua infested compound-treated leaf assessed as reduction in feeding damage at 40 mg a.i/L after 48 hr by leaf disk assay relative to untreated control. Also noted: scale not given: the % may be the effect or the level left.
The test system of assay [17] is Plutella xylostella. Briefly: Antifeedant activity against third-instar larval stage of Plutella xylostella (diamondback moth) infested compound-treated leaf assessed as time required to stop feeding at 244 mg a.i/L after 48 hr by leaf disk assay (reference value: > 2880 min).
The subject of assay [18] is Trichoplusia ni. Put plainly: Antifeedant activity against third-instar larval stage of Trichoplusia ni (cabbage looper) infested compound-treated leaf assessed as reduction in feeding damage at 244 mg a.i/L after 48 hr by leaf disk assay relative to untreated control. Also noted: scale not given: the % may be the effect or the level left.
Assay [19] has as its system Spodoptera exigua. Put plainly: Antifeedant activity against third-instar larval stage of Spodoptera exigua infested compound-treated leaf assessed as reduction in feeding damage at 244 mg a.i/L after 48 hr by leaf disk assay relative to untreated control. The arrangement: scale not given: the % may be the effect or the level left.
The subject of assay [20] is Helicoverpa zea. Put plainly: Antifeedant activity against third-instar larval stage of Helicoverpa zea (corn earworm) infested compound-treated leaf assessed as reduction in feeding damage at 244 mg a.i/L after 48 hr by leaf disk assay relative to untreated control. The arrangement: scale not given: the % may be the effect or the level left.
For assay [21], the system named is Plutella xylostella. Briefly: Antifeedant activity against third-instar larval stage of Plutella xylostella (diamondback moth) infested compound-treated leaf assessed as reduction in feeding damage at 244 mg a.i/L after 48 hr by leaf disk assay relative to untreated control. The arrangement: scale not given: the % may be the effect or the level left.
Assay [22] relates to Helicoverpa zea. Briefly: Antifeedant activity against third-instar larval stage of Helicoverpa zea (corn earworm) infested compound-treated leaf assessed as time required to stop feeding at 244 mg a.i/L after 48 hr by leaf disk assay (reference value: > 2880 min).
Assay [23] has as its system Trichoplusia ni. Briefly: Antifeedant activity against third-instar larval stage of Trichoplusia ni (cabbage looper) infested compound-treated leaf assessed as time required to stop feeding at 244 mg a.i/L after 48 hr by leaf disk assay (reference value: > 2880 min).
Assay [24] concerns Spodoptera exigua. Briefly: Antifeedant activity against third-instar larval stage of Spodoptera exigua infested compound-treated leaf assessed as time required to stop feeding at 244 mg a.i/L after 48 hr by leaf disk assay (reference value: > 2880 min).

For `CNC(=O)c1cc(Cl)cc(C)c1NC(=O)c1cc(Br)nn1-c1ncccc1Cl` [CHLORANTRANILIPROLE], the Time with Trichoplusia ni [1] is recorded as 23.4 min; in the assay with Plutella xylostella [4], 15.4 min; with Helicoverpa zea [7], 20.3 min; in the assay with Spodoptera exigua [8] it was 25.3 min. Moreover, the Activity in the assay with Helicoverpa zea [2] is on record as 99.2%; with Plutella xylostella [3], 99.4%; with Spodoptera exigua [5] it was 99%; with Trichoplusia ni [6], 99.4%.

Regarding `CC[C@H](C)C1O[C@]2(C=C[C@@H]1C)C[C@@H]1C[C@@H](C/C=C(\C)[C@@H](O[C@H]3C[C@H](OC)[C@@H](O[C@H]4C[C@H](OC)[C@H](NC)[C@H](C)O4)[C@H](C)O3)[C@@H](C)/C=C/C=C3\CO[C@@H]4[C@H](O)C(C)=C[C@@H](C(=O)O1)[C@]34O)O2.O=C(O)c1ccccc1` (some centres undefined) [EMAMECTIN BENZOATE], the Time is on record as 151.8 min with Helicoverpa zea [9], 139 min with Spodoptera exigua [12], 55.9 min in the assay with Plutella xylostella [13] and 91.9 min with Trichoplusia ni [15]. In addition, the Activity in the assay on Helicoverpa zea [10] amounted to 93.9%; in the assay on Plutella xylostella [11], 97.9%; in the assay with Trichoplusia ni [14], 95.7%; in the assay with Spodoptera exigua [16], 92.4%.

Take `COC(=O)N(C(=O)N1CO[C@@]2(C(=O)OC)Cc3cc(Cl)ccc3C2=N1)c1ccc(OC(F)(F)F)cc1` [INDOXACARB]: the Time with Plutella xylostella [17] is 151.6 min; in the assay with Helicoverpa zea [22], 77.2 min; with Trichoplusia ni [23], 83.6 min; in the assay on Spodoptera exigua [24], 54.2 min. Moreover, the Activity with Trichoplusia ni [18] is 94.8%; with Spodoptera exigua [19], 95.4%; in the assay on Helicoverpa zea [20], 93.4%; in the assay on Plutella xylostella [21], 96.6%.

For the origin of these results see ChEMBL document CHEMBL3044623, “Feeding cessation effects of chlorantraniliprole, a new anthranilic diamide insecticide, in comparison with several insecticides in distinct chemical classes and mode-of-action groups” (2009).
